Test results published in ChEMBL document CHEMBL5325423, “Discovery of 7H-Pyrrolo[2,3-d]pyrimidine Derivatives as potent hematopoietic progenitor kinase 1 (HPK1) inhibitors” (Eur J Med Chem, 2023).
One block for each compound: values may come before it.

Assays:
[1] = molecular target: T1, Mitogen-activated protein kinase kinase kinase kinase 1 (Homo sapiens, UniProt Q92918); test: Inhibition of human HPK1 using myelin basic protein and [gamma33P]ATP as substrate incubated for 40 mins in presence of Mg/ATP by radiometric scintillation counting analysis
T1 sequence (Q92918 whole entry): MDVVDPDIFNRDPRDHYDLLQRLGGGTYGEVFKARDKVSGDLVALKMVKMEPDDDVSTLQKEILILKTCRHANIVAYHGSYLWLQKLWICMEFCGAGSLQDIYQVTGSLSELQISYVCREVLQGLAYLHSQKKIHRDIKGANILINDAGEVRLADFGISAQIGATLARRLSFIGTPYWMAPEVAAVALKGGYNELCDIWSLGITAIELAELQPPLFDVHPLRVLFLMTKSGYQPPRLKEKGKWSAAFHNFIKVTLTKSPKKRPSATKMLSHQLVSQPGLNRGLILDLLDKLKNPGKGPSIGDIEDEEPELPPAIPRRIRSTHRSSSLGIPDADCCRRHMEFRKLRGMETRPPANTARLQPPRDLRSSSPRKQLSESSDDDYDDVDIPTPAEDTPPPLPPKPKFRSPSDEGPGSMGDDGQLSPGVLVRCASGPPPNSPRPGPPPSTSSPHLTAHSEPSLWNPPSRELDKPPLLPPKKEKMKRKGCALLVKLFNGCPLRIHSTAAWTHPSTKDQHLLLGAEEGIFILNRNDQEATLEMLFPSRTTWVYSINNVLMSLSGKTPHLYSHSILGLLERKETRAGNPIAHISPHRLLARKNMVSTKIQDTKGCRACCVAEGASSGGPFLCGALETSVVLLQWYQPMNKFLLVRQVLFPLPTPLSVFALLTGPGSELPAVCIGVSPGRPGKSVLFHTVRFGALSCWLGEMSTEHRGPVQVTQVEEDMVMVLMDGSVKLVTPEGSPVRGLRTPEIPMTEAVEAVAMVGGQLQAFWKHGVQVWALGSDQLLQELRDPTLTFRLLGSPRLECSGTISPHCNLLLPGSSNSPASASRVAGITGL

[2] = molecular target: T1, Mitogen-activated protein kinase kinase kinase kinase 1; test: Inhibition of HPK1 (unknown origin)
[3] = molecular target: T1, Mitogen-activated protein kinase kinase kinase kinase 1; test: Inhibition of human HPK1 in human Jurkat T cells assessed as inhibition of SLP76 phosphorylation
[4] = molecular target: T1, Mitogen-activated protein kinase kinase kinase kinase 1; test: Inhibition of human HPK1 in anti-human CD3 stimulated human Jurkat T cells assessed as inhibition of SLP76 phosphorylation preincubated for 10 mins followed by anti-human CD3 stimulation and measured after 60 mins by Western blot analysis; type: cell-based
[5] = molecular target: T1, Mitogen-activated protein kinase kinase kinase kinase 1; test: Inhibition of human HPK1 in human Jurkat T cells assessed as increase in anti-human CD3 stimulated IL-2 secretion preincubated for 10 mins followed by anti-human CD3 stimulation and measured after 24 hrs by ELISA; type: cell-based
[6] = molecular target: ALK tyrosine kinase receptor (Homo sapiens) (UniProt Q9UM73); test: Inhibition of ALK (unknown origin) assessed as remaining activity at 1 uM relative to control
Sequence of ALK tyrosine kinase receptor (Homo sapiens) (Q9UM73 19-1620 limits assumed): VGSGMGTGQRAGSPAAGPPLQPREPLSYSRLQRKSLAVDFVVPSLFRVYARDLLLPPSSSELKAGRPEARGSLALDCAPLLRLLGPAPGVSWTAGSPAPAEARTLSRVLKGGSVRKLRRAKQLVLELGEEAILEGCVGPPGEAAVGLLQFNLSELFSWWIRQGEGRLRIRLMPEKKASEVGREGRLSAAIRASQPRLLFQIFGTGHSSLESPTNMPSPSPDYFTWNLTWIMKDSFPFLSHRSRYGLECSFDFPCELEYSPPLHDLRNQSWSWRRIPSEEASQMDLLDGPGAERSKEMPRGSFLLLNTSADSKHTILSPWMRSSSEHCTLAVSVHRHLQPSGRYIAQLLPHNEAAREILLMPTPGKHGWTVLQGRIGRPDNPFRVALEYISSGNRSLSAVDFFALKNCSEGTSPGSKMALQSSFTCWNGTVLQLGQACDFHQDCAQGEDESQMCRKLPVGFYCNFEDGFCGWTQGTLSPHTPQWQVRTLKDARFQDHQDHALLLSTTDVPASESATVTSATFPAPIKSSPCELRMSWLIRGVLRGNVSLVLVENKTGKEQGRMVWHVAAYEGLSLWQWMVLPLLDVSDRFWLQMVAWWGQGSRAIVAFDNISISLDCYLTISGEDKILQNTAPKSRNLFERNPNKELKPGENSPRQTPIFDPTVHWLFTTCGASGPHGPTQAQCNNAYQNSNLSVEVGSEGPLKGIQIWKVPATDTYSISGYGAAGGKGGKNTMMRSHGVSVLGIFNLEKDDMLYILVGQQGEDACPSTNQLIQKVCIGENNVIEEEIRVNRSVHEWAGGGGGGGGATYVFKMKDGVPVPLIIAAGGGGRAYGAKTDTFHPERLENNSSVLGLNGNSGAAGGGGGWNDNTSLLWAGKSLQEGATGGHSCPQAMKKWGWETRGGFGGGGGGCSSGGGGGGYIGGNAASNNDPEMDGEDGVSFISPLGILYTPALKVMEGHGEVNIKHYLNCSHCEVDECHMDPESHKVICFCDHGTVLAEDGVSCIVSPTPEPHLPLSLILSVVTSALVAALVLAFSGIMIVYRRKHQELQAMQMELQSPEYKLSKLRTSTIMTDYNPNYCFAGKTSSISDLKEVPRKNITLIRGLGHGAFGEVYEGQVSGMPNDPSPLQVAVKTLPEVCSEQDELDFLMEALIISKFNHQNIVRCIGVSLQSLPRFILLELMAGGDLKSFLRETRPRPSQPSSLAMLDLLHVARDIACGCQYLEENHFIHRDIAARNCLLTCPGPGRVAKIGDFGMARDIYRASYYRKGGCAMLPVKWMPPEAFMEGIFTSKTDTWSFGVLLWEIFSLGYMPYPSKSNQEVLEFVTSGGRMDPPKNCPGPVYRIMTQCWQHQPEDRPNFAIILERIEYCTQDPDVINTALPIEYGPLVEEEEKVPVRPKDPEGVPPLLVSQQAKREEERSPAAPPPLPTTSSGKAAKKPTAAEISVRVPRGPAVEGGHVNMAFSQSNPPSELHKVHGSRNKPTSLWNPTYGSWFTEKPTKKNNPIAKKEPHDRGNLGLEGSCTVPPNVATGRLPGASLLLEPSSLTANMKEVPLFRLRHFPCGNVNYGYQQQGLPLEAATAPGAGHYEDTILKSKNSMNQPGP

[7] = molecular target: Interleukin-1 receptor-associated kinase 4 (Homo sapiens) (UniProt Q9NWZ3); test: Inhibition of IRAK4 (unknown origin) assessed as remaining activity at 1 uM relative to control
[8] = molecular target: Leucine-rich repeat serine/threonine-protein kinase 2 (Homo sapiens) (UniProt Q5S007); test: Inhibition of LRRK2 (unknown origin) assessed as remaining activity at 1 uM relative to control
Sequence of Leucine-rich repeat serine/threonine-protein kinase 2 (Homo sapiens) (Q5S007 whole entry): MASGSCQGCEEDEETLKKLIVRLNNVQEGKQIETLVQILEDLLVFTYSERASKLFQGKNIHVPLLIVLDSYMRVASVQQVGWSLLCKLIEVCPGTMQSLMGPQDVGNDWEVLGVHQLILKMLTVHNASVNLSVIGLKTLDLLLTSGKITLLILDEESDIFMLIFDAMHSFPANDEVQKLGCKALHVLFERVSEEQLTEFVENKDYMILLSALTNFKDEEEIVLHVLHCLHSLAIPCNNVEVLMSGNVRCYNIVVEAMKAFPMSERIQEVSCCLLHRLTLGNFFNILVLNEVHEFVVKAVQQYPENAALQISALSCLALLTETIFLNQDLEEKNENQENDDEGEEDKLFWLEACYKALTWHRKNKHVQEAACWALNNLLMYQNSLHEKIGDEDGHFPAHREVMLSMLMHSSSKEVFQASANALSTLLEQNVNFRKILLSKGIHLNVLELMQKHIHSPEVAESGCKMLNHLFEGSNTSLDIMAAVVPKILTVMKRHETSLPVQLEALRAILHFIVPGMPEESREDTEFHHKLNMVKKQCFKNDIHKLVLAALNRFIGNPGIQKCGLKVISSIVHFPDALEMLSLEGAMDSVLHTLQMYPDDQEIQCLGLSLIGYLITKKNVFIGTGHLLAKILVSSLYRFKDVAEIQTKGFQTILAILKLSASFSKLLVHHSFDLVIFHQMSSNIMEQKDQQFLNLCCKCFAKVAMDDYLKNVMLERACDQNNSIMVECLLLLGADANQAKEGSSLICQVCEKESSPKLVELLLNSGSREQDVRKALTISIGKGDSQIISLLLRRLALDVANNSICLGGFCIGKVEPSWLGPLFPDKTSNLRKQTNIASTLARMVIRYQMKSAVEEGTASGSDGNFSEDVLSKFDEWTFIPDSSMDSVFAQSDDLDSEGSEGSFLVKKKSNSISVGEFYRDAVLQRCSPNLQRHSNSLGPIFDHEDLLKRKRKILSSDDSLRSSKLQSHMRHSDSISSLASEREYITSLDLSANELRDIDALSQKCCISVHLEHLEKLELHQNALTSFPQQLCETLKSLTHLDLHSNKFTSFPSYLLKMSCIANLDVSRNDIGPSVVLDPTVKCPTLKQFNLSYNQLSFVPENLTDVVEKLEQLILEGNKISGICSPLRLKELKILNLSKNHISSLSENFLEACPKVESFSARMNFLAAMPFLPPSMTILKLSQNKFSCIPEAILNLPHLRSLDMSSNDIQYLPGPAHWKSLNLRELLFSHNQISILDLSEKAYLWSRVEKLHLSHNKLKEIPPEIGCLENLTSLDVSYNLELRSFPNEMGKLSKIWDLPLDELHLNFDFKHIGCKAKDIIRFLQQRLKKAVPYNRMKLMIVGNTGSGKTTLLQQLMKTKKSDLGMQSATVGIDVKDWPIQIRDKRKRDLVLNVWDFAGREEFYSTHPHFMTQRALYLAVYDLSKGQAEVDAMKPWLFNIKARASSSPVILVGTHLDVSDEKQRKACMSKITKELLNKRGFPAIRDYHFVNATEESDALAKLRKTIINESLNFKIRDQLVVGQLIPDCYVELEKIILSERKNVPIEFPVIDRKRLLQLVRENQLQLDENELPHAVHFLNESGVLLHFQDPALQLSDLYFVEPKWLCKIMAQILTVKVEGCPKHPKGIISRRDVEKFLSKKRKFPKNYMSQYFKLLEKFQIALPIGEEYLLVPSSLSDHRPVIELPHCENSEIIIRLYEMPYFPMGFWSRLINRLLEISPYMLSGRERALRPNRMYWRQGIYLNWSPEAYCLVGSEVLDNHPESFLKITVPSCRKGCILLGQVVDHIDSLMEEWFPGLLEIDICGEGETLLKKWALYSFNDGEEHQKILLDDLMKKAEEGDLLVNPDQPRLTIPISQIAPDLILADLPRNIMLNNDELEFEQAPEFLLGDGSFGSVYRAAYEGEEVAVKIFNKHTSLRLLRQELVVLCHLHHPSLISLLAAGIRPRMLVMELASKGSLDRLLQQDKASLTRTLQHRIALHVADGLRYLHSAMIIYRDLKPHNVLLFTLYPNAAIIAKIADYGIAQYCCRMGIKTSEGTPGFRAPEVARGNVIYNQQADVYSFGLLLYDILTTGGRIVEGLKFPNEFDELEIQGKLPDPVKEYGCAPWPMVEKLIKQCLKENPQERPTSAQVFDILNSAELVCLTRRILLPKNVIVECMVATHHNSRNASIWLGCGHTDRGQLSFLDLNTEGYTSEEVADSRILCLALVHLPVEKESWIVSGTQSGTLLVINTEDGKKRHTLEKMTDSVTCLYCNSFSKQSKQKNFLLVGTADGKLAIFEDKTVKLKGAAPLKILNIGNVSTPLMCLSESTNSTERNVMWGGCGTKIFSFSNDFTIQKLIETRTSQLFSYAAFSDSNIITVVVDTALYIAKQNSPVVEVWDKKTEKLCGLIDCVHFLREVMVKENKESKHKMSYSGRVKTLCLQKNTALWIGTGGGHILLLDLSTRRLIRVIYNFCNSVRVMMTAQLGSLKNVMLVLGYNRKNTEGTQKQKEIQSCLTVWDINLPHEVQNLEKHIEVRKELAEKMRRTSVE

[9] = molecular target: Dual specificity protein kinase TTK (Homo sapiens) (UniProt P33981); test: Inhibition of TTK (unknown origin) assessed as remaining activity at 1 uM relative to control
[10] = molecular target: Focal adhesion kinase 1 (Homo sapiens) (UniProt Q05397); test: Inhibition of FAK (unknown origin) assessed as remaining activity at 1 uM relative to control
[11] = molecular target: Tyrosine-protein kinase receptor UFO (Homo sapiens) (UniProt P30530); test: Inhibition of AXL (unknown origin) assessed as remaining activity at 1 uM relative to control
[12] = molecular target: Receptor-type tyrosine-protein kinase FLT3 (Homo sapiens) (UniProt P36888); test: Inhibition of FLT3 (unknown origin) assessed as remaining activity at 1 uM relative to control
[13] = molecular target: Tyrosine-protein kinase JAK2 (Homo sapiens) (UniProt O60674); test: Inhibition of JAK2 (unknown origin) assessed as remaining activity at 1 uM relative to control
[14] = molecular target: Epidermal growth factor receptor (Homo sapiens) (UniProt P00533); test: Inhibition of EGFR (unknown origin) assessed as remaining activity at 1 uM relative to control
[15] = molecular target: Tyrosine-protein kinase Lck (Homo sapiens) (UniProt P06239); test: Inhibition of LCK (unknown origin) assessed as remaining activity at 1 uM relative to control
[16] = molecular target: Tyrosine-protein kinase Fyn (Homo sapiens) (UniProt P06241); test: Inhibition of FYN (unknown origin) assessed as remaining activity at 1 uM relative to control
[17] = molecular target: Tyrosine-protein kinase JAK1 (Homo sapiens) (UniProt P23458); test: Inhibition of JAK1 (unknown origin) assessed as remaining activity at 1 uM relative to control
[18] = molecular target: Serine/threonine-protein kinase PAK 4 (Homo sapiens) (UniProt O96013); test: Inhibition of PAK4 (unknown origin) assessed as remaining activity at 1 uM relative to control
[19] = molecular target: Insulin-like growth factor 1 receptor (Homo sapiens) (UniProt P08069); test: Inhibition of IGF-1R (unknown origin) assessed as remaining activity at 1 uM relative to control
[20] = molecular target: Tyrosine-protein kinase SYK (Homo sapiens) (UniProt P43405); test: Inhibition of SYK (unknown origin) assessed as remaining activity at 1 uM relative to control
[21] = molecular target: Tyrosine-protein kinase JAK3 (Homo sapiens) (UniProt P52333); test: Inhibition of JAK3 (unknown origin) assessed as remaining activity at 1 uM relative to control
[22] = molecular target: Mitogen-activated protein kinase 10 (Homo sapiens) (UniProt P53779); test: Inhibition of JNK3 (unknown origin) assessed as remaining activity at 1 uM relative to control
[23] = molecular target: Tyrosine-protein kinase BTK (Homo sapiens) (UniProt Q06187); test: Inhibition of BTK (unknown origin) assessed as remaining activity at 1 uM relative to control
[24] = molecular target: Tyrosine-protein kinase ABL1 (Homo sapiens) (UniProt P00519); test: Inhibition of ABL (unknown origin) assessed as remaining activity at 1 uM relative to control
[25] = molecular target: Mitogen-activated protein kinase 9 (Homo sapiens) (UniProt P45984); test: Inhibition of JNK2 (unknown origin) assessed as remaining activity at 1 uM relative to control
[26] = molecular target: Tyrosine-protein kinase ZAP-70 (Homo sapiens) (UniProt P43403); test: Inhibition of ZAP70 (unknown origin) assessed as remaining activity at 1 uM relative to control
[27] = molecular target: Mitogen-activated protein kinase 8 (Homo sapiens) (UniProt P45983); test: Inhibition of JNK1 (unknown origin) assessed as remaining activity at 1 uM relative to control
[28] = molecular target: ALK tyrosine kinase receptor (Homo sapiens) (UniProt Q9UM73); test: Inhibition of ALK (unknown origin) at 1 uM
[29] = molecular target: Interleukin-1 receptor-associated kinase 4 (Homo sapiens) (UniProt Q9NWZ3); test: Inhibition of IRAK4 (unknown origin) at 1 uM
[30] = molecular target: Leucine-rich repeat serine/threonine-protein kinase 2 (Homo sapiens) (UniProt Q5S007); test: Inhibition of LRRK2 (unknown origin) at 1 uM
[31] = molecular target: T1, Mitogen-activated protein kinase kinase kinase kinase 1; test: Inhibition of wild type HPK1 (unknown origin) using FAM-FPQAAsLPPYFAKKK peptide as substrate in presence of ATP by caliper assay

- IC50 [1]: 127 nM
Compound: COc1cc2c(cc1Nc1nc(Nc3ccccc3OC)c3cc[nH]c3n1)CN(C)CC2

- IC50 [1]: 640 nM
Compound: COc1cc2c(cc1Nc1nc(Nc3ccccc3F)c3cc[nH]c3n1)CN(C)CC2

- IC50 [1]: 356 nM
Compound: COc1cc2c(cc1Nc1nc(Nc3ccccc3S(=O)(=O)N3CCC(C)(C)CC3)c3cc[nH]c3n1)CN(C)CC2

- IC50 [1]: 4 nM
Compound: COc1cc2c(cc1Nc1nc(Nc3ccccc3S(=O)(=O)N(C)C)c3c(-c4ccoc4)c[nH]c3n1)CN(C)CC2

- IC50 [1]: 97.5 nM
Compound: COc1ccc(CN(C)C)cc1Nc1nc(Nc2ccccc2S(=O)(=O)N(C)C)c2c(-c3cccnc3)c[nH]c2n1

- IC50 [1]: 4.5 nM
Compound: COc1cc2c(cc1Nc1nc(Nc3ccccc3S(=O)(=O)C(C)C)c3cc[nH]c3n1)CN(C)CC2

- IC50 [1]: > 1000 nM
Compound: COc1cc2c(cc1Nc1nc(Nc3ccccc3S(=O)(=O)N(C)C)c3c(-c4ccccc4)c[nH]c3n1)CN(C)CC2

- IC50 [1]: 1.5 nM
Compound: COc1cc2c(cc1Nc1nc(Nc3ccccc3S(=O)(=O)N3CCCC3)c3cc[nH]c3n1)CN(C)CC2

- IC50 [1]: 631 nM
Compound: COc1cc2c(cc1Nc1nc(Nc3ccccc3Cl)c3cc[nH]c3n1)CN(C)CC2

- IC50 [1]: 14 nM
Compound: COc1cc2c(cc1Nc1nc(Nc3ccccc3S(=O)(=O)N(C)C)c3c(-c4cnccc4C)c[nH]c3n1)CN(C)CC2

- IC50 [1]: 2.5 nM
Compound: COc1cc2c(cc1Nc1nc(Nc3ccccc3S(=O)(=O)N(C)C)c3cc[nH]c3n1)CN(C)CC2

- IC50 [1]: 9 nM
Compound: COc1cc2c(cc1Nc1nc(Nc3ccccc3S(=O)(=O)N(C)C)c3c(-c4cnn(C)c4)c[nH]c3n1)CN(C)CC2

- IC50 [1]: 84 nM
Compound: COc1cc2c(cc1Nc1nc(Nc3ccccc3OC(C)C)c3cc[nH]c3n1)CN(C)CC2

- IC50 [1]: 17.5 nM
Compound: COc1cc2c(cc1Nc1nc(Nc3ccccc3S(=O)(=O)N3CCCCC3)c3cc[nH]c3n1)CN(C)CC2

- IC50 [1]: 1.5 nM
Compound: CN1CCc2ccc(Nc3nc(Nc4ccccc4S(=O)(=O)N(C)C)c4c(-c5cccnc5)c[nH]c4n3)cc2C1

- IC50 [1]: 5.5 nM
Compound: CCOc1cc(Nc2nc(Nc3ccccc3S(=O)(=O)N(C)C)c3c(-c4cccnc4)c[nH]c3n2)ccc1N1CCOCC1

- IC50 [1]: 454 nM
Compound: COc1cc2c(cc1Nc1nc(Nc3ccccc3C)c3cc[nH]c3n1)CN(C)CC2

- IC50 [1]: 42 nM
Compound: COc1cc2c(cc1Nc1nc(Nc3ccccc3S(=O)(=O)N(C)C)c3c(-c4c(C)noc4C)c[nH]c3n1)CN(C)CC2

- IC50 [1]: 12.5 nM
Compound: COc1cc2c(cc1Nc1nc(Nc3ccccc3S(=O)(=O)N3CC(C)(C)C3)c3cc[nH]c3n1)CN(C)CC2

- IC50 [1]: 3 nM
Compound: COc1cc2c(cc1Nc1nc(Nc3ccccc3S(=O)(=O)N(C)C)c3c(-c4cn[nH]c4)c[nH]c3n1)CN(C)CC2

- IC50 [1]: 45 nM
Compound: COc1cc2c(cc1Nc1nc(Nc3ccccc3S(=O)(=O)N3CCC3)c3c(-c4cccnc4)c[nH]c3n1)CN(C)CC2

- IC50 [1]: 313 nM
Compound: COc1cc2c(cc1Nc1nc(Nc3ccccc3)c3cc[nH]c3n1)CN(C)CC2

- IC50 [1]: 73 nM
Compound: CCCN(CCC)S(=O)(=O)c1ccccc1Nc1nc(Nc2cc3c(cc2OC)CCN(C)C3)nc2[nH]ccc12

- IC50 [1]: 9.5 nM
Compound: COc1cc2c(cc1Nc1nc(Nc3ccccc3S(=O)(=O)N(C)C)c3c(-c4ccncc4)c[nH]c3n1)CN(C)CC2

- IC50 [1]: 4.5 nM
Compound: COc1cc2c(cc1Nc1nc(Nc3ccccc3S(=O)(=O)N3CCCC3)c3c(-c4cccnc4)c[nH]c3n1)CN(C)CC2

- IC50 [2]: 86 nM
- IC50 [3]: 150 nM
Compound: Cn1cc(Nc2ncc(C3=CCC[C@@H](NC(=O)c4ccccc4)C3)nc2C(N)=O)cn1

- IC50 [1]: 2 nM
- IC50 [4]: 1210 nM
- EC50 [5]: 1390 nM
- Activity [6]: < 50%
- Activity [7]: < 50%
- Activity [8]: < 50%
- Activity [9]: < 50%
- Activity [10]: < 50%
- Activity [11]: < 50%
- Activity [12]: < 50%
- Activity [13]: < 50%
- Activity [14]: > 50%
- Activity [15]: > 50%
- Activity [16]: > 50%
- Activity [17]: > 50%
- Activity [18]: > 50%
- Activity [19]: > 50%
- Activity [20]: > 50%
- Activity [21]: > 50%
- Activity [22]: > 50%
- Activity [23]: > 50%
- Activity [24]: > 50%
- Activity [25]: > 50%
- Activity [26]: > 50%
- Activity [27]: > 50%
- inhibition [28]: > 90%
- inhibition [29]: > 90%
- inhibition [30]: > 90%
Compound: CN1CCc2cc(Cl)c(Nc3nc(Nc4ccccc4S(=O)(=O)N(C)C)c4c(-c5cccnc5)c[nH]c4n3)cc2C1

- IC50 [31]: < 5 nM
Compound: COc1cc2c(cc1Nc1ncc(Cl)c(Nc3ccccc3P(C)(C)=O)n1)CN(C)CC2

- IC50 [1]: 5 nM
Compound: CN(C)S(=O)(=O)c1ccccc1Nc1nc(Nc2ccc(N3CCOCC3)cc2)nc2[nH]cc(-c3cccnc3)c12

- IC50 [1]: 7 nM
Compound: CCN(CC)S(=O)(=O)c1ccccc1Nc1nc(Nc2cc3c(cc2OC)CCN(C)C3)nc2[nH]ccc12

- IC50 [1]: 12 nM
Compound: COc1cc2c(cc1Nc1nc(Nc3ccccc3S(=O)(=O)N(C)C)c3c(-c4ccc(N)nc4)c[nH]c3n1)CN(C)CC2

- IC50 [1]: 12 nM
Compound: COc1cc2c(cc1Nc1nc(Nc3ccccc3S(=O)(=O)N(C)C)c3c(-c4cccnc4)c[nH]c3n1)CN(C(C)C)CC2

- IC50 [1]: 386 nM
Compound: COc1cc2c(cc1Nc1nc(Nc3ccccc3C(C)(C)C)c3cc[nH]c3n1)CN(C)CC2

- IC50 [1]: 3.5 nM
Compound: COc1cc2c(cc1Nc1nc(Nc3ccccc3S(=O)(=O)N(C)C)c3c(-c4c[nH]nc4C)c[nH]c3n1)CN(C)CC2

- IC50 [1]: 7.5 nM
Compound: COc1cc2c(cc1Nc1nc(Nc3ccccc3P(C)(C)=O)c3cc[nH]c3n1)CN(C)CC2

- IC50 [1]: 6 nM
Compound: CN1CCc2cc(Nc3nc(Nc4ccccc4S(=O)(=O)N(C)C)c4c(-c5cccnc5)c[nH]c4n3)ccc2C1

- IC50 [1]: 4.5 nM
Compound: COc1cc(Nc2nc(Nc3ccccc3S(=O)(=O)N(C)C)c3c(-c4cccnc4)c[nH]c3n2)ccc1N1CCOCC1

- IC50 [1]: 781 nM
Compound: COc1cc(N2CCOCC2)ccc1Nc1nc(Nc2ccccc2S(=O)(=O)N(C)C)c2c(-c3cccnc3)c[nH]c2n1

- IC50 [1]: 29.5 nM
Compound: COc1cc2c(cc1Nc1nc(Nc3ccccc3S(=O)(=O)N(C)C)c3c(-c4cccnc4C)c[nH]c3n1)CN(C)CC2

- IC50 [1]: 349 nM
Compound: COc1cc2c(cc1Nc1nc(Nc3ccccc3S(=O)(=O)N3CCOCC3)c3cc[nH]c3n1)CN(C)CC2

- IC50 [1]: 1 nM
Compound: COc1cc2c(cc1Nc1nc(Nc3ccccc3S(=O)(=O)N3CCC3)c3cc[nH]c3n1)CN(C)CC2

- IC50 [1]: 9 nM
Compound: COc1cc2c(cc1Nc1nc(Nc3ccccc3S(=O)(=O)N(C)C)c3c(-c4ccn(C)c(=O)c4)c[nH]c3n1)CN(C)CC2
